In the assay the test system is facial skin vasodilation induced by electrical trigeminal ganglion stimulation. Briefly: Measurement of facial skin blood flow (vasodilation induced by electrical trigeminal ganglion stimulation, laser Doppler flowmetry). The format is in vivo, rat. To be noted: for % of trigeminus stimulation: anaesthetized male wistar rats. The procedure:
Facial skin blood flow was measured by a modified method described by Escott et al. ([…]., Connor, H. E., Brain, S. D. (1995), Trigeminal ganglion stimulation increases facial skin blood flow in the rat a major role for calcitonin gene-related peptide, Brain Research, 669(1), 93-99). Fasted male wistar rats (strain CHbb:THOM, 280-320g) were anaesthetized with sodium pentobarbitone (initially with 60 mg/kg i.p. and maintained throughout the experiment with an intraperitoneal infusion of 30 mg/kg/h through a 23 G needle using a solution of 10 mg/ml). Both sides of the buccal area of the facial skin were shaved and depilated with a commercial depilatory […], Germany). The trachea was cannulated and the animals were artificially respired (80 strokes/min) with room air supplemented with oxygen. The body temperature was maintained at 37°C by an automated heating pad. The left femoral artery and the left femoral vein were cannulated for the continuous measurement of arterial blood pressure and intravenous administration of test compounds, respectively. […] Heart rate was derived from the blood pressure signal. Blood pressure and heart rate were continuously monitored throughout the course of the experiment to assess the level of anaesthesia and to monitor the cardiovascular effects of the drugs used in this study. The animals were placed in a stereotaxic frame and a longitudinal incision was made in the scalp. […] The position of the electrodes in the trigeminal ganglia were checked visually at the end of each experiment following removal of the brain. The trigeminal ganglion was stimulated at 10 Hz, 1 mA, 1 msec for 30 seconds using a stimulator supplied by Hugo Sachs Elektronik (79232 March-Hugstetten, Germany). Microvascular blood flow changes in the facial skin were measured by Laser Doppler flowmetry with a Periflux laser doppler system (PeriFLUX 4001, wave length […]; time constant 3 s, Perimed AB, Järfälla, S-17526, Sweden). Standard laser doppler probes (PROBE 408) were positioned on either side of the face approximately 0.5 cm below the centre of the eye, an area innervated by the maxillary branch (V2) of the trigeminal nerve. Blood flow changes were measured as flux in arbitrary units and expressed as area under the flux curve (mm^2) according to Escott et al. (1995). […] The first stimulation was used as a control for the subsequent stimulations.

Data on 4 compounds can be found in patent EP1420790B1, “USE OF BIBN4096 IN COMBINATION WITH OTHER ANTIMIGRAINE DRUGS FOR THE TREATMENT OF MIGRAINE” (Boehringer Ingelheim Pharma GmbH & Co.KG, priority 2001, dated 2003).

As for `CN1C[C@H](C(=O)N[C@]2(C)O[C@@]3(O)[C@@H]4CCCN4C(=O)[C@H](Cc4ccccc4)N3C2=O)C[C@@H]2c3cccc4[nH]cc(c34)C[C@H]21` [DHE, Dihydroergotamin], the “% inhibition compared to control value” (rat, in vivo) turned out to be 27.0%. With `CN(C)CCc1c[nH]c2ccc(C[C@H]3COC(=O)N3)cc12` [Zolmitriptan, zolmitriptan], for the setting “Zolmitriptan 0.1 mg/kg intravenously 5 min prior to second stimulation”, the “% of trigeminus stimulation” value is reported as 55.6 ± 4.8%. Besides, the “% inhibition compared to control value” (Zolmitriptan 0.1 mg/kg intravenously 5 min prior to second stimulation, versus saline control) turned out to be 32.8%. As for `CNS(=O)(=O)Cc1ccc2[nH]cc(CCN(C)C)c2c1` [Sumatriptan, sumatriptan], for the setting “Sumatriptan 1.0 mg/kg intravenously 5 min prior to second stimulation”, the “% of trigeminus stimulation” value stood at 68.8 ± 6.8%. The “% inhibition compared to control value” (Sumatriptan 1.0 mg/kg intravenously 5 min prior to second stimulation, versus saline control) was determined as 16.8%. With `NCCCC[C@H](NC(=O)[C@@H](Cc1cc(Br)c(O)c(Br)c1)NC(=O)N1CCC(N2Cc3ccccc3NC2=O)CC1)C(=O)N1CCN(c2ccncc2)CC1` [BIBN 4096 BS, 1-[N^2-[3,5-Dibromo-N-[[4-(3,4-dihydro-2(1H)-oxochinazolin-3-yl)-1-piperidinyl]-carbonyl]-D-tyrosyl]-L-lysyl]-4-(4-pyridinyl)-piperazine], under “BIBN 4096 BS 0.03 mg/kg intravenously 5 min prior to second stimulation, mean ± spread”, the “% of trigeminus stimulation” value is 60.3 ± 5.1%. Also, the “% inhibition compared to control value” (BIBN 4096 BS 0.03 mg/kg intravenously 5 min prior to second stimulation, versus saline control) was 27.1%.
